Assay results as given in US11945779B2, “Inhibitors of cancer metastasis through inhibiting migration and invasion of cancer cells” (VSpharmtech, priority 2018, dated 2024).

System: lung cancer cells A549
Assay: Trans-well cancer cell migration inhibition, A549
Assay type: cell-based
Conditions: A549, concentration not given, FIG. 3
Experimental: In order to analyze cancer cell migration inhibitory activity of CG-608, CG-609 or CG-618 prepared in Examples 1, 2, or 9, cell migration inhibitory activity was measured using a trans-well by targeting a colon cancer cell line DLD-1 (ATCC-CCL-221), pancreatic cancer cell lines AsPc-1 (ATCC-CCL-1682). CFPAC-1 (ATCC-CCL-1918). Panc-1 (ATCC-CCL-1469), and Miapaca-2 (ATCC-CCL-1420), a skin cancer cell line A375-P (ATCC-CCL-3224), lung cancer cell lines HCC-827 (ATCC-CCL-2868), A549 (ATCC-CCL-185), and NCI-H460 (ATCC-CCL-177), a prostate cancer cell line DU145 (ATCC-HTB-81), a stomach cancer cell line NuGC-3 (JCRB0822), and an ovarian cancer cell line SKOV-3 (ATCC-HTB-77).
First, the number of DLD-1 cells was measured using a hemocytometer in an RPMI medium without FBS. […] After culture, […] of crystal violet (5 mg/mL of 20% […] was added to each well of the 24-well plate and the trans-well was dyed at room temperature for 30 minutes. The dyed trans-well was washed with PBS and non-migrated cells were wiped off with cotton swabs. The prepared sample was photographed with an inverted microscope mounted with a digital camera (TE 300, Nikon. Japan) and then the number of migrated cells was counted. The degree of inhibiting cell migration was calculated by Equation 1 for a group treated with the sample compared to a control group (DMSO). […]

**Q.** `C[C@H](COc1ccccc1Cc1ccccc1)N1CCCC[C@@H]1C` [CG-609, (S)-1-((R)-1-(2-benzylphenoxy)propan-2-yl)-2-methylpiperidine] was tested. Which “Inhibition of cell migration” value did it give?
**A.** ≥ 50%
